This is an account of results in paper PMC11127949, “Selective targeting of IRAK1 attenuates low molecular weight hyaluronic acid-induced stemness and non-canonical STAT3 activation in epithelial ovarian cancer” (Cell Death & Disease, 2024).

This test deals with T1, IRAK1 (Homo sapiens, UniProt P51617).
T1 construct: active recombinant IRAK1 enzyme
Description: SPR ([…] model); supported by KINOMEscan active-site competition binding and CETSA in A2780 cells.

By Kd is commonly meant the concentration at which binding is half-saturated. A higher Kd goes with a looser complex.

T1 sequence (P51617 whole entry): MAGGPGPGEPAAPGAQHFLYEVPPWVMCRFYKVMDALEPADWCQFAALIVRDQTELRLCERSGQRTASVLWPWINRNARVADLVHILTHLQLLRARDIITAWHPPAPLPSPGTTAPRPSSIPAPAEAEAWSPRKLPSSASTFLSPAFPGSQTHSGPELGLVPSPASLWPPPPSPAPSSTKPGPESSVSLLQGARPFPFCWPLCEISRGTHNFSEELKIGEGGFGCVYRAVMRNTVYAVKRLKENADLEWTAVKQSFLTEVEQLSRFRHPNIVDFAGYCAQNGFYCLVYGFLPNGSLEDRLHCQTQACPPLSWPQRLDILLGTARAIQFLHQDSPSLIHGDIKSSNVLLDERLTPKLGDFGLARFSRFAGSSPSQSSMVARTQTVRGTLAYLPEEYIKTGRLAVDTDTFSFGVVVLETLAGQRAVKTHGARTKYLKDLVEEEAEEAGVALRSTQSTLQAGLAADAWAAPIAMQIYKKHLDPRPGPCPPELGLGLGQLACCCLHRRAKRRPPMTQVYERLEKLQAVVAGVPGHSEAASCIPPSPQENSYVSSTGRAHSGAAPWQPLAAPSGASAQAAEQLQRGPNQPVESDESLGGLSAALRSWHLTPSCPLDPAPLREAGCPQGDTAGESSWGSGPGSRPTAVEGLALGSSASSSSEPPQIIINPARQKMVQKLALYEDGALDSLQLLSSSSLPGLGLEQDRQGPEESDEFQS

`O=C(NO)c1ccc2[nH]c(=O)c(CCCc3ccccc3)nc2c1` [TCS2210] had a Kd of 1760 nM. This lies in the single-digit micromolar range.
